# Tests used:
# [1] = cited from earlier work
# [2] = Bioavailability of tocopheryl phosphate in rats (tocopheryl phosphate in liver, ES/MS); format: in vivo, male Sprague-Dawley rats; settings: rat
# Procedure: The rats were dosed using the following protocol: • (a) A single dose of the compound was administered to male Sprague-Dawley rats (see Table 1). Oral gavage was with an 18 g gavage needle and 1 ml syringe. Intravenous was with a 26 g hypodermic needle and 1 ml syringe. • (b) Twenty four hours after administrations, the rats were anaesthetized with 60 mg/kg of Nembutal (an anaesthetic from Meril, USA) by intra peritoneal injection. • (c) Once the rats were under deep anaesthesia, a sample of blood was taken from the tail vein, and the femoral vein was exposed and injected with 500 units of heparin. The abdominal cavity was opened and the rat perfused with saline. The liver, heart, epidydimal fat pad, hind-leg muscle and brain was removed and frozen in liquid nitrogen.
# The livers were extracted according to the following method: • (a) Homogenise 1 g of liver in 10 ml dichloromethane. • (b) Add 0.1 mg of ditocopheryl phosphate (1 mg/ml in 50% tetrahydrofuran) as an internal standard. • (c) Mix using homogeniser and centrifuge sample. • (d) Remove and evaporate dichloromethane. • (e) Add 9 ml of KOH (2M) and stir for one hour at room temperature. • (f) Add 10 ml hexane, shake and remove hexane (upper) layer. • (g) Add 10 ml HCl (2M) to the 9 ml KOH (2M) solution. • (h) Add 10 ml hexane, shake and remove hexane layer. • (i) Evaporate hexane layer to dryness.
# The extracts were analysed and quantitated for TP (μg) content by electrospray mass spectrometry using the established calibration curve (tocopheryl phosphate vs ditocopheryl phosphate).
# ES/MS analysis conditions: Sample was dissolved in 1 ml tetrahydrofuran (THF) containing 1% ammonia, 20 μl was injected into the sample loop. The sample was eluted with THF:water (9:1) 20 μl/min. Mass spectrometric analysis was conducted in negative ion mode with cone voltage of 40V using Micromass Platform.
# [3] = Stability of tocopheryl phosphate arginine complex in a beverage (pH, turbidity, degradation); format: physicochemical
# Procedure: Four ml was added to each 500 ml bottle using sterile conditions. Three treatment groups were used for each drink: 4° C., 37° C. and room temperature (RT). The drinks were monitored for bacterial growth and contamination on a weekly basis, both visually, and by plating a sample onto LB agar plates, which were grown for 48 hours at 37° C.
compound,measurement,setting,value
"COC1=C(OC)C(=O)C(C/C=C(\C)CC/C=C(\C)CC/C=C(\C)CC/C=C(\C)CC/C=C(\C)CC/C=C(\C)CC/C=C(\C)CC/C=C(\C)CC/C=C(\C)CCC=C(C)C)=C(C)C1=O [CoQ10, ubiquinone]",destruction of CoQ10 by boiling,[1]; boiling,no detectable destruction
same,destruction of CoQ10 by frying,[1]; frying,14-32%
"CC(=O)Oc1c(C)c(C)c2c(c1C)CCC(C)(CCC[C@H](C)CCC[C@H](C)CCCC(C)C)O2 (some centres unmarked) [Tocopheryl acetate, reference compound]",amount of tocopheryl phosphate present compared to the controls,[2]; oral administration,did not result in a significant increase
Tocopheryl phosphate,amount of tocopheryl phosphate detected in the livers,[2]; enteric coating preparation or oral solution,increase
same,amount of tocopheryl phosphate present in the liver after 24 hours,"[2]; intravenous administration, vs controls",significant increase
same,Tocopheryl phosphate in liver,"[2]; intravenous, 10 mg/kg single dose, 24 h after administration",24.0 µg/g
same,Tocopheryl phosphate in liver,"[2]; intravenous, 30 mg/kg single dose, 24 h",28.0 µg/g
same,Tocopheryl phosphate in liver,"[2]; oral (enteric coated), 30 mg/kg single dose, 24 h",19.3 µg/g
same,Tocopheryl phosphate in liver,"[2]; oral, 10 mg/kg single dose, 24 h",19.2 µg/g
same,Tocopheryl phosphate in liver,"[2]; oral, 30 mg/kg single dose, 24 h",18.4 µg/g
tocopheryl phosphate arginine complex,Turbidity,"[3]; blue Musashi drink with TP, 4° C.",12.54 NTU
same,Turbidity,"[3]; blue Musashi drink with TP, 37° C.",28.55 NTU
same,Turbidity,"[3]; blue Musashi drink with TP, RT",24.05 NTU
same,amount of degradation of the complex,"[3]; in acidic drinks, at the pH required for biological stability",negligible
same,Turbidity,"[3]; orange Musashi drink with TP, 4° C.",232.0 NTU
same,Turbidity,"[3]; orange Musashi drink with TP, 37° C.",220.0 NTU
same,Turbidity,"[3]; orange Musashi drink with TP, RT",224.0 NTU
